Laboratory results from patent US20170252298A1, “Performance-Enhancing Nasal Irrigation” (Backed-by-Science, Inc., priority 2014, published 2017).

System: nasal cilia
Assay: nasal ciliary beat frequency (CBF), whole field analysis over time
Format: cell-based
Set-up: Mean CBF (WFA): unit: Hz
Protocol: The ATP concentration inside the cell is typically 1-10 millimolar (mM). We started with an ATP concentration of 1 mg/ml based on literature data and from testing done by Dr. James Palmer at University of Pennsylvania on ATP concentration for increasing nasal ciliary beat frequency. […] 1 mg/ml from the below charts=1 mg/ml=1 gram per liter=1/507 g/mol=2 mM. Most intracellular ATP concentrations in animals fall within the range of 0.5-10 mM. [table]

[1] = Plate 2, elapsed 0:08:10, ATP 1 mg/ml
[2] = Plate 2, elapsed 0:08:20, ATP 1 mg/ml
[3] = Plate 2, elapsed 0:08:30, ATP 1 mg/ml
[4] = Plate 2, elapsed 0:08:40, ATP 1 mg/ml
[5] = Plate 2, elapsed 0:08:50, ATP 1 mg/ml
[6] = Plate 2, elapsed 0:09:00, ATP 1 mg/ml
[7] = Plate 2, elapsed 0:09:10, ATP 1 mg/ml
[8] = Plate 2, elapsed 0:09:20, ATP 1 mg/ml
[9] = Plate 2, elapsed 0:09:30, ATP 1 mg/ml
[10] = Plate 2, elapsed 0:09:40, ATP 1 mg/ml
[11] = Plate 2, elapsed 0:09:50, ATP 1 mg/ml
[12] = Plate 2, elapsed 0:10:00, ATP 1 mg/ml
[13] = Plate 2, elapsed 0:10:10, ATP 1 mg/ml
[14] = Plate 2, elapsed 0:10:20, ATP 1 mg/ml
[15] = Plate 2, elapsed 0:10:30, ATP 1 mg/ml
[16] = Plate 2, elapsed 0:10:40, ATP 1 mg/ml
[17] = Plate 2, elapsed 0:10:50, ATP 1 mg/ml
[18] = Plate 2, elapsed 0:11:00, ATP 1 mg/ml
[19] = Plate 2, elapsed 0:11:10, ATP 1 mg/ml
[20] = Plate 2, elapsed 0:15:10, ATP 1 mg/ml
[21] = Plate 2, elapsed 0:15:20, ATP 1 mg/ml
[22] = Plate 2, elapsed 0:15:30, ATP 1 mg/ml
[23] = Plate 2, elapsed 0:15:40, ATP 1 mg/ml
[24] = Plate 2, elapsed 0:15:50, ATP 1 mg/ml
[25] = Plate 2, elapsed 0:16:00, ATP 1 mg/ml
[26] = Plate 2, elapsed 0:16:10, ATP 1 mg/ml
[27] = Plate 2, elapsed 0:16:20, ATP 1 mg/ml
[28] = Plate 2, elapsed 0:16:30, ATP 1 mg/ml
[29] = Plate 2, elapsed 0:16:40, ATP 1 mg/ml
[30] = Plate 2, elapsed 0:16:50, ATP 1 mg/ml
[31] = Plate 2, elapsed 0:17:00, ATP 1 mg/ml
[32] = Plate 2, elapsed 0:17:10, ATP 1 mg/ml
[33] = Plate 2, elapsed 0:17:20, ATP 1 mg/ml
[34] = Plate 2, elapsed 0:17:30, ATP 1 mg/ml
[35] = Plate 2, elapsed 0:17:40, ATP 1 mg/ml
[36] = Plate 2, elapsed 0:17:50, ATP 1 mg/ml
[37] = Plate 2, elapsed 0:18:00, ATP 1 mg/ml
[38] = Plate 2, elapsed 0:18:10, ATP 1 mg/ml
[39] = Plate 2, elapsed 0:18:20, ATP 1 mg/ml
[40] = Plate 2, elapsed 0:18:30, ATP 1 mg/ml
[41] = Plate 2, elapsed 0:18:40, ATP 1 mg/ml
[42] = Plate 2, elapsed 0:18:50, ATP 1 mg/ml
[43] = Plate 2, elapsed 0:19:00, ATP 1 mg/ml
[44] = Plate 2, elapsed 0:19:10, ATP 1 mg/ml
[45] = Plate 2, elapsed 0:19:20, ATP 1 mg/ml
[46] = Plate 2, elapsed 0:19:30, ATP 1 mg/ml
[47] = Plate 2, elapsed 0:19:40, ATP 1 mg/ml
[48] = Plate 2, elapsed 0:19:50, ATP 1 mg/ml
[49] = Plate 2, elapsed 0:20:00, ATP 1 mg/ml

In the case of Nc1ncnc2c1ncn2[C@@H]1O[C@H](COP(=O)(O)OP(=O)(O)OP(=O)(O)O)[C@@H](O)[C@H]1O [ATP, adenosine triphosphate], the “Active Area” value [1] is reported as 37.97%, the “Mean CBF (WFA)” value [1] is reported as 8.3 and the “Active Area” value [2] is reported as 38.66%. The “Mean CBF (WFA)” value [2] was 8.29, the “Active Area” value [3] was 39% and the “Mean CBF (WFA)” value [3] was 8.27. For the same compound, the “Active Area” value [4] was 36.32%, the “Mean CBF (WFA)” value [4] was 8.33 and the “Active Area” value [5] was 39.05%. For the same compound, the “Mean CBF (WFA)” value [5] was 8.36, the “Active Area” value [6] was 37.12% and the “Mean CBF (WFA)” value [6] was 8.36. For the same compound, the “Active Area” value [7] was 38.83%, the “Mean CBF (WFA)” value [7] was 8.31 and the “Active Area” value [8] was 38.39%. For the same compound, the “Mean CBF (WFA)” value [8] was 8.31, the “Active Area” value [9] was 37.54% and the “Mean CBF (WFA)” value [9] was 8.37. For the same compound, the “Active Area” value [10] was 36.11%, the “Mean CBF (WFA)” value [10] was 8.42 and the “Active Area” value [11] was 35.79%. For the same compound, the “Mean CBF (WFA)” value [11] was 8.4, the “Active Area” value [12] was 36.58% and the “Mean CBF (WFA)” value [12] was 8.44. For the same compound, the “Active Area” value [13] was 36.77%, the “Mean CBF (WFA)” value [13] was 8.49 and the “Active Area” value [14] was 37.58%. For the same compound, the “Mean CBF (WFA)” value [14] was 8.39, the “Active Area” value [15] was 37.33% and the “Mean CBF (WFA)” value [15] was 8.41. The “Active Area” value [16] was 37.82%, the “Mean CBF (WFA)” value [16] was 8.41 and the “Active Area” value [17] was 35.58%. The “Mean CBF (WFA)” value [17] was 8.37, the “Active Area” value [18] was 38.06% and the “Mean CBF (WFA)” value [18] was 8.43. For the same compound, the “Active Area” value [19] was 38.67%, the “Mean CBF (WFA)” value [19] was 8.42 and the “Active Area” value [20] was 41.31%. The “Mean CBF (WFA)” value [20] was 8.44, the “Active Area” value [21] was 41.96% and the “Mean CBF (WFA)” value [21] was 8.48. For the same compound, the “Active Area” value [22] was 39.32%, the “Mean CBF (WFA)” value [22] was 8.43 and the “Active Area” value [23] was 39.9%. The “Mean CBF (WFA)” value [23] was 8.44, the “Active Area” value [24] was 40.84% and the “Mean CBF (WFA)” value [24] was 8.41. The “Active Area” value [25] was 41.99%, the “Mean CBF (WFA)” value [25] was 8.36 and the “Active Area” value [26] was 42.7%. The “Mean CBF (WFA)” value [26] was 8.37, the “Active Area” value [27] was 43.14% and the “Mean CBF (WFA)” value [27] was 8.39. The “Active Area” value [28] was 42.52%, the “Mean CBF (WFA)” value [28] was 8.36 and the “Active Area” value [29] was 42.09%. The “Mean CBF (WFA)” value [29] was 8.38, the “Active Area” value [30] was 42.85% and the “Mean CBF (WFA)” value [30] was 8.33. For the same compound, the “Active Area” value [31] was 38.98%, the “Mean CBF (WFA)” value [31] was 8.32 and the “Active Area” value [32] was 41.85%. The “Mean CBF (WFA)” value [32] was 8.27, the “Active Area” value [33] was 41.7% and the “Mean CBF (WFA)” value [33] was 8.24. The “Active Area” value [34] was 42.78%, the “Mean CBF (WFA)” value [34] was 8.29 and the “Active Area” value [35] was 40.85%. The “Mean CBF (WFA)” value [35] was 8.32, the “Active Area” value [36] was 42.27% and the “Mean CBF (WFA)” value [36] was 8.27. The “Active Area” value [37] was 38.92%, the “Mean CBF (WFA)” value [37] was 8.27 and the “Active Area” value [38] was 40.18%. For the same compound, the “Mean CBF (WFA)” value [38] was 8.29, the “Active Area” value [39] was 42.69% and the “Mean CBF (WFA)” value [39] was 8.27. The “Active Area” value [40] was 42.91%, the “Mean CBF (WFA)” value [40] was 8.27 and the “Active Area” value [41] was 41.71%. For the same compound, the “Mean CBF (WFA)” value [41] was 8.24, the “Active Area” value [42] was 42.85% and the “Mean CBF (WFA)” value [42] was 8.28. The “Active Area” value [43] was 43.3%, the “Mean CBF (WFA)” value [43] was 8.24 and the “Active Area” value [44] was 42.12%. The “Mean CBF (WFA)” value [44] was 8.22, the “Active Area” value [45] was 42.33% and the “Mean CBF (WFA)” value [45] was 8.25. For the same compound, the “Active Area” value [46] was 43.77%, the “Mean CBF (WFA)” value [46] was 8.23 and the “Active Area” value [47] was 44.6%. The “Mean CBF (WFA)” value [47] was 8.25, the “Active Area” value [48] was 43.27% and the “Mean CBF (WFA)” value [48] was 8.24. For the same compound, the “Active Area” value [49] was 43.87%, the “Mean CBF (WFA)” value [49] was 8.26 and the “ATP concentration sufficient to give an increase in ciliary beat frequency” value (testing by Dr. James Palmer, University of Pennsylvania) was 1 mg/mL.
